Measurements reported in ChEMBL document CHEMBL1201862, “PubChem BioAssay data set” (2004).
The source made the active and inactive calls.

Assays:
[1] = NIH3T3 cell viability loss – ATP luminescence, mouse fibroblasts, counter-screen, dose response (AID 2010); assay type: functional, cell-based;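 note: cells exposed to compound for about 90 hours before reading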
Nonstructural protein 1 = Nonstructural protein 1 (Influenza A virus, UniProt Q194T2); assay type: functional, Influenza A virus (A/California/07/2009(H1N1))
Streptokinase A = target: T1, Streptokinase A (Streptococcus pyogenes serotype M1, UniProt P10520); experiment: viability-normalized secreted streptokinase activity reduction – plasminogen activation absorbance, OD405, dose response (AID 1914); assay type: functional, Streptococcus pyogenes M1 GAS;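 note: secreted streptokinase activity via plasminogen activation per viability signal from cell pellet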
T1 sequence (P10520 whole entry): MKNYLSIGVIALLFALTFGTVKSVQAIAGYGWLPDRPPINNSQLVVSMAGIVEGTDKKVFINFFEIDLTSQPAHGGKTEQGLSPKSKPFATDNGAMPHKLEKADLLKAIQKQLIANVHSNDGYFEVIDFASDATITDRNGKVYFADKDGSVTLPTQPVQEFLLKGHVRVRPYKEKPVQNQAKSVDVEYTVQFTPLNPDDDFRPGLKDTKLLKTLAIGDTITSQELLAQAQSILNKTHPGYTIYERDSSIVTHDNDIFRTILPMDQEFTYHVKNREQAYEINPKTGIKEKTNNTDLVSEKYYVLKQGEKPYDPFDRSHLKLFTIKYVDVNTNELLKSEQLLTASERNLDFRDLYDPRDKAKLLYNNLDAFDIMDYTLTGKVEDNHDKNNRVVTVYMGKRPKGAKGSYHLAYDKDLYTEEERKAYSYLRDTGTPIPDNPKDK

[2] = tested on: Streptococcus sp. 'group A'; experiment: Streptococcus pyogenes SK(-)GAS viability under kanamycin – luminescence, BacTiterGlo, confirmation, counter-screen for streptokinase expression inhibitor project, dose response (AID 1900); assay type: functional, organism-based
Protein RecA = target: T2, Protein RecA (Mycobacterium tuberculosis, UniProt P9WHJ3); experiment: Fluorescence Cell-Free Homogeneous Dose Retest to Identify Inhibitors of RecA-Intein Splicing Activity. [Related pubchem assays (depositor defined):AID2097, AID2223, AID489010, AID492950]; assay type: functional
T2 sequence (P9WHJ3 whole entry): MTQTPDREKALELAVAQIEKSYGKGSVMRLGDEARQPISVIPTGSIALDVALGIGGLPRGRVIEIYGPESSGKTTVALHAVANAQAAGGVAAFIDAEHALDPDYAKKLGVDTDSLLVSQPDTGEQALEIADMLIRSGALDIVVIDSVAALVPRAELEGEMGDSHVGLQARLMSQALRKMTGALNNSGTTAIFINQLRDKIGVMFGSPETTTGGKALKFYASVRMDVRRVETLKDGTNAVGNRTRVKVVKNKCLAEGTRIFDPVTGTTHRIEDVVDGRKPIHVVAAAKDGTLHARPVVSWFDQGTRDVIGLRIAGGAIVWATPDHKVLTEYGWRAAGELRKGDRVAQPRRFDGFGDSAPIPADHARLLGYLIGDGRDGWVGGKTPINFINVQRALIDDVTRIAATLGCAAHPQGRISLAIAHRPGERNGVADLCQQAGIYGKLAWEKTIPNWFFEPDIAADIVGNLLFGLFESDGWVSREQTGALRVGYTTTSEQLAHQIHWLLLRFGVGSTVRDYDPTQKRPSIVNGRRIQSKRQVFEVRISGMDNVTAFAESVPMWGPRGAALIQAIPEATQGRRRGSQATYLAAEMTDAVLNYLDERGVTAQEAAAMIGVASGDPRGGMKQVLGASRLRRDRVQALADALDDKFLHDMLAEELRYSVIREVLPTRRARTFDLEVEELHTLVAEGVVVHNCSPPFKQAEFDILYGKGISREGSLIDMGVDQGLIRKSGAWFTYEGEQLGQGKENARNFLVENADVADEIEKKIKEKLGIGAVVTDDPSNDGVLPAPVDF

Streptococcus = experiment: GAS UMAA2166 growth inhibition – luminescence, BacTiterGlo, counter-screen for streptokinase expression inhibitor project, dose response (AID 1915); assay type: functional, organism-based;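 note: potency for reduction of bacterial viability or growth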
[3] = target: T3, Replicative DNA helicase DnaB (Mycobacterium tuberculosis, UniProt P9WMR3); experiment: DnaB intein splicing inhibitors, dose response, biochemical, cell-free fluorescence (AID 449749); assay type: functional
T3 sequence (P9WMR3 whole entry): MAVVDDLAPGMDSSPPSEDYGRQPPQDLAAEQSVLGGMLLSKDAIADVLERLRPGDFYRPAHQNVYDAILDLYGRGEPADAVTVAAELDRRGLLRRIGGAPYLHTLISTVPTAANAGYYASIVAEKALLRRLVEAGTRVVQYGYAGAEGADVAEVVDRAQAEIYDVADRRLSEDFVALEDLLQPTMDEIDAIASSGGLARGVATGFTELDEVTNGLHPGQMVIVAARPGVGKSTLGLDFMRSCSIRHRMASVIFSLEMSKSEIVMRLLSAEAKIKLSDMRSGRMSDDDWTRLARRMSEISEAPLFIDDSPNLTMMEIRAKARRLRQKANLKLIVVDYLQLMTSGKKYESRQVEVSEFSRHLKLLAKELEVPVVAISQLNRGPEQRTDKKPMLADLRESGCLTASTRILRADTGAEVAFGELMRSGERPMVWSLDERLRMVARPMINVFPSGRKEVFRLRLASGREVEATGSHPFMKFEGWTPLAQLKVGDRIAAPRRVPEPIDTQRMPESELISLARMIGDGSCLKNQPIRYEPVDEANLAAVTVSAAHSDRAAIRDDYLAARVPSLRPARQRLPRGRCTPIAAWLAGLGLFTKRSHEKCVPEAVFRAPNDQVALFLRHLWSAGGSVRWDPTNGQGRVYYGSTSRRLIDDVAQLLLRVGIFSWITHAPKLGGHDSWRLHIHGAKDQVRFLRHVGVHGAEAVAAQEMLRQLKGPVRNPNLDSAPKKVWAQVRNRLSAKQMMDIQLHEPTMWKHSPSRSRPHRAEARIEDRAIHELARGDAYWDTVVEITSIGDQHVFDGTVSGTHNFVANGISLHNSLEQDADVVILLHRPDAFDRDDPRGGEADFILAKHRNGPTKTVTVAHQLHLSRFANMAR

[4] = Trypanosoma cruzi growth suppression in host cells – NIH3T3 host cells, beta-gal luminescence, confirmation (AID 2044); assay type: functional, cell-based;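 note: intracellular parasites grown in NIH/3T3 mouse fibroblasts as host cells; luminescent beta-galactosidase reporter signal from transgenic T. cruzi replicating inside host cells; inhibitors lower the luminescence signal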
[5] = blockade of melanocortin 4 receptor signaling – cell-based, plate reader, cherry pick, counter-screen for LGR2 antagonist project, dose response (AID 743444); assay type: functional;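 note: transfected HEK 293 cells stimulated with alpha-MSH peptide; potency of inhibitors of the alpha-MSH evoked signal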
[6] = blockers of bursicon-stimulated LGR2 cAMP reporter – cell-based, HEK293, CRE-luciferase reporter, cherry pick, set 2, dose response (AID 743343); assay type: functional;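 note: transfected cells were stimulated with diluted bursicon conditioned medium after compound addition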
[7] = HIV-1 AD8 envelope cell-cell fusion blockers – cherry-pick, dose response (AID 652062); assay type: functional, cell-based;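 note: luciferase signal from cell-cell fusion driven by HIV-1 clade B AD8 Env; potency is for inhibitors of fusion seen as a drop in luminescence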
[8] = blockers of HIV-1 ZM109 envelope-driven cell-cell fusion – HeLa effector, CEM target cells, luciferase, cherry-pick, dose response (AID 652058); assay type: functional, cell-based;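 note: luciferase signal from HIV-1 Env mediated cell-cell fusion of effector and target cells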
[9] = blockers of HIV-1 envelope-mediated cell-cell fusion – cherry-pick, dose response (AID 652057); assay type: functional, cell-based
[10] = target: Ras and Rab interactor 1/Tyrosine-protein kinase ABL1 (Homo sapiens, UniProt P00519+Q13671); assay type: functional;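 note: biochemical TR-FRET dose-response test measuring inhibition of binding between Rin1 and Abl proteins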
[11] = intracellular Trypanosoma cruzi inhibitors in host cells – cell-based, plate reader, cherry-pick samples, set 3, dose response (AID 651818); assay type: functional;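 note: compounds incubated with infected cells for about four days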
SN12K1 = experiment: cells; assay type: functional; conditions: Homo sapiens
P388/ADR = experiment: cells; assay type: functional; conditions: Mus musculus
[12] = target: T4, Carboxy-terminal domain RNA polymerase II polypeptide A small phosphatase 1 (Homo sapiens, UniProt Q9GZU7); experiment: CTDSP1 inhibitors, concentration-response, biochemical, absorbance readout, ultra-high-throughput screen actives (AID 540297); assay type: functional
T4 sequence (Q9GZU7 whole entry): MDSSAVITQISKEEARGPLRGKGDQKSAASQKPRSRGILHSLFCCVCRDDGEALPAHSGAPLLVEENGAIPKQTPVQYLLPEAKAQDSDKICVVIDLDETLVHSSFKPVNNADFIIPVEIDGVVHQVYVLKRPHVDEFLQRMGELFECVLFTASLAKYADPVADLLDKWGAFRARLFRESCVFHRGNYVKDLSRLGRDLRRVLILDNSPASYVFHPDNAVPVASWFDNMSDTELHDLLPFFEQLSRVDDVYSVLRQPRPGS

[13] = target: T5, DNA repair protein RAD52 homolog (Homo sapiens, UniProt P43351); assay type: functional, biochemical
T5 sequence (P43351 whole entry): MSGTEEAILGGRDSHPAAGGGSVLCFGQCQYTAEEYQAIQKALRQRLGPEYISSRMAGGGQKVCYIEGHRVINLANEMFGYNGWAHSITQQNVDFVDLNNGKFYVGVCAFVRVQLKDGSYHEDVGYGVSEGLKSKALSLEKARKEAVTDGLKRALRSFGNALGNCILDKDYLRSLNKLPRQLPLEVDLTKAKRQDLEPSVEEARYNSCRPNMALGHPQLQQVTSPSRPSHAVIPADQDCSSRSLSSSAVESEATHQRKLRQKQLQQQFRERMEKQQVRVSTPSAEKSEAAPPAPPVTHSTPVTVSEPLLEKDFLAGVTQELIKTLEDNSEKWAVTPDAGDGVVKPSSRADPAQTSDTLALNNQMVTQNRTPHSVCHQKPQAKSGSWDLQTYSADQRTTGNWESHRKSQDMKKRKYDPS

Sequence of Ras and Rab interactor 1/Tyrosine-protein kinase ABL1 (P00519 whole entry): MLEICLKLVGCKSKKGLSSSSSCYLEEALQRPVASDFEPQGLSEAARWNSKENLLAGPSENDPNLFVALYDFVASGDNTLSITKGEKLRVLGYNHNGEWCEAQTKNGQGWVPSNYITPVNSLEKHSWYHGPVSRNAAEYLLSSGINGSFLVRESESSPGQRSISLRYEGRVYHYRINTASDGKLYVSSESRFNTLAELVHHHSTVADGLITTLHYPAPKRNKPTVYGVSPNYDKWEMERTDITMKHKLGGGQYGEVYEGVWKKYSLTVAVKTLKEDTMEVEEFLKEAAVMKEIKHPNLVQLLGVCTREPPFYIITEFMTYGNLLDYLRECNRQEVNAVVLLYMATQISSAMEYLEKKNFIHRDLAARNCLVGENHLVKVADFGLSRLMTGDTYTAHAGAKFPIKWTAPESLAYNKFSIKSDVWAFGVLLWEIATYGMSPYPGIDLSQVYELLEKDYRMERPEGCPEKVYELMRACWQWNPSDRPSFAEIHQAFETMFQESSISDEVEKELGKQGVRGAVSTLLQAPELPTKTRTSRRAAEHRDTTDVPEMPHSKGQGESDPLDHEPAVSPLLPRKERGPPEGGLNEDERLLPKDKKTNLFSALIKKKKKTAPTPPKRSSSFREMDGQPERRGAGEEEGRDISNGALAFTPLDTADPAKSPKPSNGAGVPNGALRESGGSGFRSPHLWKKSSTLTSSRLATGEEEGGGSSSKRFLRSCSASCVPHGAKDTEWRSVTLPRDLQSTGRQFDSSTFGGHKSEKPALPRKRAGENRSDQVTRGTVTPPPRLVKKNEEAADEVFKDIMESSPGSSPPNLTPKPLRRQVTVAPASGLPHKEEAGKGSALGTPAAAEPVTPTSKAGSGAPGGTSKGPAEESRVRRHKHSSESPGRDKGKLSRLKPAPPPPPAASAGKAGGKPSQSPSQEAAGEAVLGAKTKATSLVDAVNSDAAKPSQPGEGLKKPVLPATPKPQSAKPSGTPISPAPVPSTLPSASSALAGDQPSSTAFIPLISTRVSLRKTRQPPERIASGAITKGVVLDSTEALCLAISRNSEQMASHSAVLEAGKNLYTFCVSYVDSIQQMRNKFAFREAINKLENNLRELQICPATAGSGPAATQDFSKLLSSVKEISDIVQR
Sequence of Ras and Rab interactor 1/Tyrosine-protein kinase ABL1 (Q13671 whole entry): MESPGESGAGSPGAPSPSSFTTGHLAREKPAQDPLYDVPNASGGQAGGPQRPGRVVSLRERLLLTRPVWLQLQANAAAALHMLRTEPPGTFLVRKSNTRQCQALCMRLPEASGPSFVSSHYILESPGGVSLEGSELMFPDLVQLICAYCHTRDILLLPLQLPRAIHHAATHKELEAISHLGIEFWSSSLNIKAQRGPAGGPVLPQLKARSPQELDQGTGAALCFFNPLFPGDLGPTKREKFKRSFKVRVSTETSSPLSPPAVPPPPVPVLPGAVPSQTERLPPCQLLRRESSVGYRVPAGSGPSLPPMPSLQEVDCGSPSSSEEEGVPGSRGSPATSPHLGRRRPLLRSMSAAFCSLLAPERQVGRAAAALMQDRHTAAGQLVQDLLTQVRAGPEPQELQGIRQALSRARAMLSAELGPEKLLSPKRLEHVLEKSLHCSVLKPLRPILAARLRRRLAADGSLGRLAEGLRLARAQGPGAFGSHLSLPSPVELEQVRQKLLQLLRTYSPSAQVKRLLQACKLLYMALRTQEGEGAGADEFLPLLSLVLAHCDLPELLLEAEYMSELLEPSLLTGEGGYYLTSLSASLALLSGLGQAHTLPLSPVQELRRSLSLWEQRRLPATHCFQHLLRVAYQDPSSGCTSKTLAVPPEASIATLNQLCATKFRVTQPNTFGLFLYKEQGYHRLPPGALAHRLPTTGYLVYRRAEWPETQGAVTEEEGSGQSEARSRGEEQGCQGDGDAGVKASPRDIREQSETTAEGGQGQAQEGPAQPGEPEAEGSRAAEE
Sequence of Nonstructural protein 1 (Q194T2 whole entry): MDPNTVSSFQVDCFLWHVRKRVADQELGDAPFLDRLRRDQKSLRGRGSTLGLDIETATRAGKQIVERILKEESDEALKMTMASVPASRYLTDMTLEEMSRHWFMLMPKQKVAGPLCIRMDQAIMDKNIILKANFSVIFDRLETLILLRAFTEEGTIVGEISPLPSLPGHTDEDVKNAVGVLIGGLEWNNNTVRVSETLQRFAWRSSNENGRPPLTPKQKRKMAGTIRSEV

CCOC(=O)C1=C(C)n2c(s/c(=C/c3cccc([N+](=O)[O-])c3)c2=O)=NC1c1ccc(O)c(OC)c1 (configuration not stated)
EC50 [1]: > 60 µM (not active) | IC50 (Nonstructural protein 1): > 100 µM (active) | EC50 (Streptokinase A): 48.8 µM (active) | EC50 [2]: 8.14 µM (active) | EC50 (Protein RecA): 1.29 µM (active) | EC50 (Streptococcus): > 150 µM (not active) | AC50 [3]: 13.1 µM (active) | EC50 [4]: 1.11 µM (active)

C=CCNc1nc(-c2cc3ccccc3o2)cs1
AC50 [5]: 15.2 µM (active) | AC50 [6]: 13.9 µM (active)

C[C@H]1CN([C@@H](C)CO)C(=O)Cc2cc(NC(=O)Cc3ccccc3)ccc2O[C@H]1CN(C)S(=O)(=O)c1ccccc1
AC50 [7]: 7.88 µM (active) | AC50 [8]: 1.6 µM (active) | AC50 [9]: 1.62 µM (active)

O=C1N(c2cccc(Cl)c2)C(c2ccccc2)N2CCCN12 (configuration not stated)
IC50 [10]: 22.2 µM (inactive)

O=C1N(c2cccc(Cl)c2)C(c2ccc(Cl)cc2)N2CCCN12 (configuration not stated)
IC50 [10]: 31.8 µM (inactive)

CN(CCc1ccccc1)C(=O)c1ccc(NC(=O)Cc2ccc(NC(=O)C3CCN(C(=O)c4ccccc4)CC3)cc2)cc1
IC50 [10]: 3.91 µM (active)

C[C@H](CO)N1C[C@H](C)[C@H](CN(C)Cc2ccc(-c3ccccc3)cc2)Oc2ccc(NC(=O)CCCCCC(=O)Nc3ccccc3N)cc2CC1=O
AC50 [11]: 3.39 µM (active)

O=C1C=C[C@@H](COC2OC(CO)C(O)C(O)C2O)O1 (some centres not stated)
GI50 (SN12K1): 13.2 µM (inactive) | GI50 (P388/ADR): 0.343 µM (active)

O=C(Cc1ccc(S(=O)(=O)N2CCOCC2)s1)NC1CCCCC1
IC50 [12]: 7.34 µM (active)

COc1ccc2nc(NC(=O)CCc3nc(C4=CCN(C)CC4)no3)sc2c1
IC50 [10]: 1.4 µM (active)

COc1ccc(-c2cc(NC=O)c3ncc(-c4cccc(C(=O)NCCN(C)C)c4)n3c2)c(OC)c1
AC50 [13]: 2.55 µM (active)
